The text below walks through data of article PMC8622278, “The Effects of Structural Alterations in the Polyamine and Amino Acid Moieties of Philanthotoxins on Nicotinic Acetylcholine Receptor Inhibition in the Locust, Schistocerca gregaria” (Molecules, 2021).

The subject of assay [1] is locust neuron nAChR. Description: Whole-cell patch-clamp of locust mushroom body neurons, ACh-evoked currents. Type of assay: cell-based, Schistocerca gregaria. To be noted: for Fold increase in potency vs PhTX-343, 1 s current / Fold increase in potency vs PhTX-343, peak current: IC50 PhTX-343 / IC50 analogue; for Cells in which potentiation of the ACh response was observed: co-application of 0.01 and 0.1 μM. As to the method:
Neuronal cells were harvested through dissection of adult desert locusts (Shistocerca gregaria) purchased from livefoods.com. Following 10 min of cold anaesthesia at 4 °C, the locusts were submerged in 70% ethanol and their heads removed by decapitation with dissection scissors. The front of the head capsule was removed to expose the mushroom body of the brain, which was extracted, cut into small pieces, and placed into a 1 mL Eppendorf tube with 200 μL of Rinaldi’s saline (135 mM NaCl, 25 mM KCl, 0.4 mM NaHCO3, 0.5 mM glucose, and 5 mM HEPES adjusted to pH 7.2 with NaOH) containing 0.5 mg/mL dispase and 2 mg/mL collagenase. After 15 min incubation at 36.5 °C, neurons were centrifuged at 800× g for 1 min at room temperature to form a pellet. The supernatant was removed and replaced with 200 μL locust culture medium (5:4 − DMEM + 10% FCS + 2 mM Gln: Schneider’s insect medium + 10 IU/mL penicillin + 20 μg/mL streptomycin). A total of 200 μL of culture medium was gently pipette-mixed with the pellet to create a suspension of cells, which were spread over poly-L-lysine-coated glass coverslips (5 × 20 mm) in 35 mm Petri dishes containing 2 mL locust culture medium. Petri dishes were incubated overnight at 36.5 °C in a 5% CO2 atmosphere.
Experiments were conducted 16–24 h after neuron dissociation. Coverslips covered in locust neurons were placed into a patch-clamp perfusion chamber, and were then constantly perfused with locust saline solution (180 mM NaCl, 10 mM KCl, 2 mM CaCl2, 10 mM HEPES, and pH 7.2 with NaOH). Borosilicate glass patch pipettes (1B150F-4, World Precision Instruments, Hertfordshire, UK), pulled to ~5–10 MΩ with a P-97 Flaming/Brown micropipette puller (Sutter Instrument Co., Novato, CA, USA), were filled with caesium pipette solution (140 mM CsCl, 1 mM CaCl2, 1 mM MgCl2, 11 mM EGTA, and 5 mM HEPES, pH 7.2) and placed in a patch pipette holder mounted on the patch-clamp amplifier head stage. Patch-clamped cells were clamped at a holding potential (VH) of −75 mV. Whole-cell currents were monitored by using an Axopatch 200A patch-clamp amplifier (Molecular Devices, San Jose, CA, USA) and recorded with WinWCP V4.5.7 software (Dr John Dempster, Institute of Pharmacy & Biomedical Sciences, University of Strathclyde, Glasgow, UK). Test compounds were focally applied to cells as 1 s pulses using a DAD-12 superfusion system (ALA Scientific Instruments, Farmingdale, NY, USA). Between each application of test compounds, clamped cells were washed for 1 min with locust saline. […]
A total of 100 μM acetylcholine (ACh) was applied to cells twice prior to (control) and once after the co-application of 100 μM ACh and PhTX analogue. Peak current and current after 1 s of application were measured using WinWCP, and then the percentage of control response values were generated by normalising responses to ACh + PhTX co-application to the ACh-only control response. GraphPad Prism 9 (GraphPad Software, San Diego, CA, USA) was used for data analysis, graph plotting, curve fitting, and statistical analysis. To estimate the ACh EC50, concentration–response data were fit by the Hill equation:(1) % maximum response=100/(1+10^(LogEC50−X)S) where X is the log of the ACh concentration and S is the Hill slope. Concentration–inhibition curves were generated by plotting the mean and standard error of the normalised current measurements against log antagonist concentration, and then IC50 values were estimated by fitting a non-linear regression curve by using the equation:(2) % control response=100/(1+10^(X−LogIC50)S) where X is the log of the concentration of the PhTX analogue and S is the Hill slope.
(In general: In patch-clamp work, channel activity is measured electrically.)

For assay [2], the system named is rat α4β2 nAChRs. To be noted: rat subtype α4β2; cited from earlier work.
The test system of assay [3] is rat α3β4 nAChRs. To be noted: rat subtype α3β4; cited from earlier work.
The subject of assay [4] is human muscle-type nAChRs. Also on record: method as in PMID 16892364. To be noted: cited from earlier work.
Setting [5] is: inhibition of 100 μM ACh-evoked current after 1 s of activation, VH −75 mV, read-out: IC50 (95% CI), 1 s Current.
[6] abbreviates: inhibition of 100 μM ACh-evoked peak current, VH −75 mV, read-out: IC50 (95% CI), Peak Current.
[7] abbreviates: at both 0.01 and 0.1 μM, cells showing potentiation, 100 μM ACh.

pEC50, pIC50: −log10 of the molar value. Values joined by “and” are separate entries in the source; they are usually repeats but may differ in a detail not shown here. Equal entries are not always repeated. Where two headings read alike, the source gives them in different places.

As to `COc1cc2c3cc1Oc1cc(ccc1O)C[C@@H]1c4c(cc(OC)c(O)c4Oc4ccc(cc4)C[C@@H]3N(C)CC2)CC[N+]1(C)C` [d-tubocurarine, reference compound], in assay [1] (co-applied 0.1 to 100 μM with 100 μM ACh, n = 11, read-out: IC50 for inhibition of 100 μM ACh current), the pIC50 is 5.56. Moreover, in assay [1] (highest concentration (100 μM) co-applied with 100 μM ACh), the “Inhibition at the highest concentration” value was “complete inhibition”.

For `CCCC(=O)N[C@@H](CC1CCCCC1)C(=O)NCCCCCCCCCCCCN` [Cha-PhTX-12], the “Fold increase in potency vs PhTX-343, 1 s current” value (“Fold increase … 1 s current” below) in assay [1] was found to be 471 fold. Besides, the “Fold increase in potency vs PhTX-343, peak current” value (shortened to “Fold increase … peak current”) in assay [1] is recorded as above 5000 fold. Also, the pIC50 in assay [1] (at −75 mV (abstract; 1 s current), read-out: IC50) was 8.77; in assay [1] (setting [5]), 8.77; in assay [1] (setting [6]), 8.12.

On to `CC(=O)OCC[N+](C)(C)C` [ACh, acetylcholine], for which the pEC50 in assay [1] (peak response, n = 11, read-out: EC50 of ACh-evoked whole-cell current) is 4.69.

For `CCCC(=O)N[C@@H](CC1CCCCC1)C(=O)NCCCNCCCCNCCCN` [Cha-PhTX-343], in assay [1] (0.01 μM, cells showing potentiation, 100 μM ACh), the “Potentiation, % of the ACh control response, peak and 1 s current similar” value is recorded as “about 145%”. Besides, the “Potentiation, % of the ACh control response, peak and 1 s current similar” value in assay [1] (0.1 μM, cells showing potentiation, 100 μM ACh) was around 125%. Also, in assay [1], the “Fold increase … 1 s current” value was found to be 1.8 fold; the “Fold increase … peak current” value is listed as 23 fold; the “Cells in which potentiation of the ACh response was observed” value is 12 out of 22. Further, in assay [1] (setting [5]), the pIC50 was 6.36. Moreover, the pIC50 in assay [1] (setting [6]) was 5.76. For the same molecule, the IC50 result in assay [2] is “low nanomolar range”. The IC50 result in assay [3] is given as “low nanomolar range”. In assay [4], the “Times more potent than PhTX-12” value is above 10 times and the “Times more potent than PhTX-343” value is above 100 times.

For the molecule `CCCC(=O)N[C@@H](Cc1ccc(O)cc1)C(=O)NCCCNCCCCNCCCN` [PhTX-343, philanthotoxin-343, reference compound], in assay [1] (setting [7]), the “Mean potentiation, % of the ACh control response, 1 s current” value is on record as around 300%. In addition, the “Mean potentiation, % of the ACh control response, peak current” value in assay [1] (setting [7]) is on record as “around 200%”. Also, the “Cells in which potentiation of the ACh response was observed” value in assay [1] is recorded as 8 out of 23. The pIC50 was 6.10 in assay [1] (setting [5]) and 4.40 in assay [1] (setting [6]).

As for `CN1CCC[C@H]1c1cccnc1` [nicotine, reference compound], the “Whole-cell current response compared with 100 μM ACh” value in assay [1] (100 μM, same neuron) is listed as “smaller than that seen for ACh”.

Take `CCCC(=O)N[C@@H](Cc1ccc(O)cc1)C(=O)NCCCCCCCCCCCCN` [PhTX-12]: in assay [1], the “Fold increase … 1 s current” value is 6.2 fold and ~ 6 fold. Moreover, in assay [1], the “Fold increase … peak current” value turned out to be 34 fold. For the same molecule, the pIC50 was 6.89 in assay [1] (setting [5]) and 5.93 in assay [1] (setting [6]).

In general, pIC50 refers to −log10 of the IC50, conventionally taken in molar units. As usually defined, the pEC50 is the negative decadic logarithm of the EC50, by convention in mol/L.
